# Source: ChEMBL document CHEMBL5727973, “Azetidinyloxyphenylpyrrolidine compounds” (2020)
# pIC50: −log10 of the molar value.
# Molecular target: 3',5'-cyclic-AMP phosphodiesterase 4B (Homo sapiens, UniProt Q07343)
# Assay: Inhibition In Vitro Assay: PDE4A, PDE4B, PDE4C, PDE4D, and PDE5 human recombinant proteins are expressed and purified from Saccharomyes cerevisiae that lack endogenous PDEs. The phosphodiesterase enzymes are diluted on ice with enzyme dilution buffer (25 mM Tris, pH 7.5, 0.1 mM DTT, 5.0 mM MgCl2, 100 mM NaCl, 5 μM ZnSO4, 100 μg/mL BSA) to give approximately 20%-40% hydrolysis of cyclic nucleotide monophosphate (cNMP) in the absence of inhibitor. The stock solution of test compounds are diluted on the Beckman BioMek™ 1000 workstation to span a concentration range of 4.5 log units in 0.5 log increments. The DMSO concentration in the final test system is 2.5% for all PDE enzymes. The final test compound concentration tested ranged from 0.03 nM to 1 μM. The assay is performed in a 96-well microtiter plate format on a Beckman BioMek™ 1000 robotic station. Each row of the plate represents a 10-point dose response curve containing blank (no enzyme), non-inhibited control, and inhibitor dilutions spanning 4.5 log units in concentration in 0.5 log increments. Assay stock solutions are loaded into the Biomek™ reservoirs (water, inhibitor diluent [2.5% or 10% DMSO], 5× PDE assay buffer, substrate, inhibitor solutions, enzyme solutions, snake venom nucleotidase, and charcoal suspension). The reaction is initiated with enzyme, and incubated for 15 minutes at 30° C. […]
# Chain of 3',5'-cyclic-AMP phosphodiesterase 4B (Q07343 whole entry): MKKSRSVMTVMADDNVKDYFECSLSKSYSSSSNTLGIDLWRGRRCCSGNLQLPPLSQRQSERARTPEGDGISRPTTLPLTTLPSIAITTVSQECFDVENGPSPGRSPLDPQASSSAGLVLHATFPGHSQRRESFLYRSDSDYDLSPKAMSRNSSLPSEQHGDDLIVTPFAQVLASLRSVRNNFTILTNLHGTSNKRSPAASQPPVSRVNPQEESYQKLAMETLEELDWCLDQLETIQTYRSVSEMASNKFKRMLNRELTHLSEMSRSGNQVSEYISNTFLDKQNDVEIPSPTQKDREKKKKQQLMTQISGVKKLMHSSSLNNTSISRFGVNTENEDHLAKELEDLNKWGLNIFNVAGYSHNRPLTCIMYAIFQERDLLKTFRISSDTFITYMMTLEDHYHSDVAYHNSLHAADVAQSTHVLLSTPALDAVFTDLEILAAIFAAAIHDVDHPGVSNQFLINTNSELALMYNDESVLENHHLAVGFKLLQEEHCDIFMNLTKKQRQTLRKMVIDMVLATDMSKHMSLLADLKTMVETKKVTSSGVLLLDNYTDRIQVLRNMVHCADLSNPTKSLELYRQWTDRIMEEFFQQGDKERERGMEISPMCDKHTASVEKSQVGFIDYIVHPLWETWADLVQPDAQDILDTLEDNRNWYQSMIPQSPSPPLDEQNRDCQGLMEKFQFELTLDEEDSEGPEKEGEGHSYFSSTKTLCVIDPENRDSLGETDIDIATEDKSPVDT
compound,measurement,value
COc1ccc([C@@H]2CN(C(=O)[C@@H](O)CO)C[C@@]2(C)[C@@H](C)O)cc1OC1CN(c2cnccn2)C1,pIC50,7.85
